Where a name gives a salt, the structure may show the parent alone.
target: T1, human H1 receptor (Homo sapiens, UniProt P35367); experiment: Histamine H1 functional antagonist assay: determination of antagonist duration (washout, FLIPR); format: cell-based; details: at one or more time points after washout
T1 construct: expressed in transfected cells
Description: 1. Generation of Histamine H1 Cell Line The human H1 receptor is cloned using known procedures described in the literature [Biochem. Biophys. Res. Commun., 201(2):894 (1994)]. Chinese hamster ovary (CHO) cells stably expressing the human H1 receptor are generated according to known procedures described in the literature [Br. J. Pharmacol., 117(6):1071 (1996)].
To determine the antagonist duration, cells are cultured overnight in non-coated black-walled clear bottom 96-well tissue culture plates, are washed with PBS and are incubated with a concentration of antagonist chosen to give an approximate DR in the range 30-300. Following the 30 min antagonist incubation period, the cells are washed two or three times with 200 μl of PBS and then 100 μl Tyrodes buffer is added to each well to initiate antagonist dissociation. Following incubation for predetermined times, typically 30-270 min at 37° C., the cells are then washed again with 200 μl PBS and are incubated with 100 Tyrodes buffer containing Brilliant Black, probenecid and Fluo-4 for 45 min at 37° C., as described above. After this period, the cells are challenged with histamine in the FLIPR™ as described above. The dose ratio at each time point is used to determine the fractional H1 receptor occupancy by the following equation: fractional receptor occupancy=(DR-1)/DR. The decrease in receptor occupancy over time approximates to a straight line and is analysed by linear regression. The slope of this straight line fit is used as an index of the dissociation rate of the antagonist. The dose ratios for antagonist treated cells and for antagonist treated and washed cells at each time point are used to calculate a relative dose ratio (rel DR) which is also used as an index of antagonist duration. Antagonists with long duration of action produce rel DR values close to 1, and antagonists with short duration of action produce rel DR values that approaches the dose ratio value obtained for antagonist treatment alone.

T1 sequence (P35367 whole entry): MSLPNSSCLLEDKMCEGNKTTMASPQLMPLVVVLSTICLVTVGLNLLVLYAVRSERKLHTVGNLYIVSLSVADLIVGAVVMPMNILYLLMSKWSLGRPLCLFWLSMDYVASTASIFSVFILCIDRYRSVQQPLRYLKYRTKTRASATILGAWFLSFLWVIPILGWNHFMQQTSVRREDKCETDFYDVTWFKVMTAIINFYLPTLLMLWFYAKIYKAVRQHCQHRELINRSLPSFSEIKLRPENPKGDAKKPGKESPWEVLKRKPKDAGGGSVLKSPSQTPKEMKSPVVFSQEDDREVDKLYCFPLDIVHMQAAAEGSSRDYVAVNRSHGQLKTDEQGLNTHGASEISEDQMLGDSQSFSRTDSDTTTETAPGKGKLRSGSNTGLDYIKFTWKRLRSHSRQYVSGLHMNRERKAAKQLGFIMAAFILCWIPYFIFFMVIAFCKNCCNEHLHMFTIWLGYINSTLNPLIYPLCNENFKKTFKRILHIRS

| SMILES | duration of action compared with azelastine in the histamine H1 functional antagonist assay |
| --- | --- |
| COCCC(=O)NCCCN1CCC[C@@H]1Cn1nc(Cc2ccc(Cl)cc2)c2ccccc2c1=O [Example 42, N-[3-((2R)-2-{[4-[(4-Chlorophenyl)methyl]-1-oxo-2(1H)-phthalazinyl]methyl}-1-pyrrolidinyl)propyl]-3-(methyloxy)propanamide, trifluoroacetate] | longer duration of action than azelastine |
| CC(C)C(=O)NCCN1CCC[C@@H]1Cn1nc(Cc2ccc(Cl)cc2)c2ccccc2c1=O.O=C(O)C(F)(F)F [Example 41, N-[2-((2R)-2-{[4-[(4-chlorophenyl)methyl]-1-oxo-2(1H)-phthalazinyl]methyl}-1-pyrrolidinyl)ethyl]-2-methylpropanamide, trifluoroacetate] | longer duration of action than azelastine |
| O=C(CCN1CCC[C@@H]1Cn1nc(Cc2ccc(Cl)cc2)c2ccccc2c1=O)NCC(F)(F)F [Example 4, 3-((2R)-2-{[4-[(4-chlorophenyl)methyl]-1-oxo-2(1H)-phthalazinyl]methyl}-1-pyrrolidinyl)-N-(2,2,2-trifluoroethyl)propanamide] | longer duration of action than azelastine |
| CC(C)(C)NC(=O)CN1CCCC1Cn1nc(Cc2ccc(Cl)cc2)c2ccccc2c1=O.O=C(O)C(F)(F)F [Example 30, 2-((2R)-2-{[4-[(4-chlorophenyl)methyl]-1-oxo-2(1H)-phthalazinyl]methyl}-1-pyrrolidinyl)-N-(1,1-dimethylethyl) acetamide, trifluoroacetate] | longer duration of action than azelastine |
| CC(C)(C)C(=O)NCCN1CCC[C@@H]1Cn1nc(Cc2ccc(Cl)cc2)c2ccccc2c1=O.O=C(O)C(F)(F)F [Example 38, N-[2-((2R)-2-{[4-[(4-chlorophenyl)methyl]-1-oxo-2(1H)-phthalazinyl]methyl}-1-pyrrolidinyl)ethyl]-2,2-dimethylpropanamide, trifluoroacetate] | longer duration of action than azelastine |
| COCCNC(=O)CCCN1CCC[C@@H]1Cn1nc(Cc2ccc(Cl)cc2)c2ccccc2c1=O.O=CO [Example 24, Formic acid-4-((2R)-2-{[4-[(4-chlorophenyl)methyl]-1-oxo-2(1H)-phthalazinyl]methyl}-1-pyrrolidinyl)-N-[2-(methyloxy)ethyl] butanamide (1:1)] | longer duration of action than azelastine |
| CCCNC(=O)CCCN1CCC[C@@H]1Cn1nc(Cc2ccc(Cl)cc2)c2ccccc2c1=O.Cl [Example 26, 4-((2R)-2-{[4-[(4-Chlorophenyl)methyl]-1-oxo-2(1H)-phthalazinyl]methyl}-1-pyrrolidinyl)-N-propylbutanamide, hydrochloride] | longer duration of action than azelastine |
| CC(C)(C)C(=O)NCCCN1CCC[C@@H]1Cn1nc(Cc2ccc(Cl)cc2)c2cnccc2c1=O.O=C(O)C(F)(F)F [Example 80, N-[3-((2R)-2-{[4-[(4-chlorophenyl)methyl]-1-oxopyrido[3,4-d]pyridazin-2(1H)-yl]methyl}-1-pyrrolidinyl)propyl]-2,2-dimethylpropanamide, trifluoroacetate] | longer duration of action than azelastine |
| O=C(CCN1CCC[C@@H]1Cn1nc(Cc2ccc(Cl)cc2)c2ccccc2c1=O)NCCF.O=C(O)C(F)(F)F [Example 1, 3-((2R)-2-{[4-[(4-Chlorophenyl)methyl]-1-oxo-2(1H)-phthalazinyl]methyl}-1-pyrrolidinyl)-N-(2-fluoroethyl)propanamide, trifluoroacetate] | longer duration of action than azelastine |
| COCC(=O)NCCN1CCC[C@@H]1Cn1nc(Cc2ccc(Cl)cc2)c2ccccc2c1=O.O=C(O)C(F)(F)F [Example 39, N-[2-((2R)-2-{[4-[(4-chlorophenyl)methyl]-1-oxo-2(1H)-phthalazinyl]methyl}-1-pyrrolidinyl)ethyl]-2-(methyloxy)acetamide, trifluoroacetate] | longer duration of action than azelastine |
| COCCCC(=O)NCCN1CCC[C@@H]1Cn1nc(Cc2ccc(Cl)cc2)c2cnccc2c1=O [Example 70, N-[2-((2R)-2-{[4-[(4-chlorophenyl)methyl]-1-oxopyrido[3,4-d]pyridazin-2(1H)-yl]methyl}-1-pyrrolidinyl)ethyl]-4-(methyloxy)butanamide, trifluoroacetate] | longer duration of action than azelastine |
| COCCN(C)C(=O)CCN1CCC[C@@H]1Cn1nc(Cc2ccc(Cl)cc2)c2ccccc2c1=O.O=C(O)C(F)(F)F [Example 14, 3-((2R)-2-{[4-[(4-chlorophenyl)methyl]-1-oxo-2(1H)-phthalazinyl]methyl}-1-pyrrolidinyl)-N-methyl-N-[2-(methyloxy)ethyl] propanamide, trifluoroacetate] | longer duration of action than azelastine |
| CCOCCNC(=O)CCN1CCCC1Cn1nc(Cc2ccc(Cl)cc2)c2ccccc2c1=O.O=C(O)C(F)(F)F [Example 22, 3-((2R)-2-{[4-[(4-chlorophenyl)methyl]-1-oxo-2(1H)-phthalazinyl]methyl}-1-pyrrolidinyl)-N-[2-(ethyloxy)ethyl] propanamide, trifluoroacetate] | longer duration of action than azelastine |
| CC(C)c1noc(CCN2CCC[C@@H]2Cn2nc(Cc3ccc(Cl)cc3)c3ccccc3c2=O)n1.Cl [Example 61, 4-[(4-Chlorophenyl)methyl]-2-[((2R)-1-{2-[3-(1-methylethyl)-1,2,4-oxadiazol-5-yl]ethyl}-2-pyrrolidinyl)methyl]-1(2H)-phthalazinone, hydrochloride] | longer duration of action than azelastine |
| O=C(CCN1CCC[C@@H]1Cn1nc(Cc2ccc(Cl)cc2)c2ccccc2c1=O)NCC(F)F.O=CO [Example 6, formic acid-3-((2R)-2-{[4-[(4-chlorophenyl)methyl]-1-oxo-2(1H)-phthalazinyl]methyl}-1-pyrrolidinyl)-N-(2,2-difluoroethyl)propanamide (1:1)] | longer duration of action than azelastine |
| O=C(CCN1CCC[C@@H]1Cn1nc(Cc2ccc(Cl)cc2)c2ccccc2c1=O)N1CCCCC1.O=C(O)C(F)(F)F [Example 12, 4-[(4-chlorophenyl)methyl]-2-({(2R)-1-[3-oxo-3-(1-piperidinyl)propyl]-2-pyrrolidinyl}methyl)-1(2H)-phthalazinone, trifluoroacetate] | longer duration of action than azelastine |

Source: patent US20100184770A1, “COMPOUNDS” (Glaxo Group Limited, priority 2006, published 2010)
